Results: US20260159499A1, “COMPOUND AS FAK INHIBITOR AND USE THEREOF” (WIGEN BIOMEDICINE TECHNOLOGY (SHANGHAI) CO., LTD., priority 2021, published 2026)

Columns and labels:
PC3 cells [1] = test: PC3 cell proliferation, 3D activity detection; assay type: cell-based, human; conditions: Homo sapiens, PC-3, 336 h, PC3, 3D culture, 14 days, read-out: 3D IC50 against PC3 cells
Protocol: 3D activity detection: PC3 cells were seeded in a 96-well plate at 1200 cells/well, and 3D culture was performed. 14 days after the compound serially diluted was added, the growth of the cells was determined. The inhibition percentage and IC50 of the compound were calculated compared to the DMSO control group.

PC3 cells [2] = test: PC3 cell proliferation, 2D activity detection; assay type: cell-based, human; conditions: Homo sapiens, PC-3, PC3, 2D, 72 h, read-out: 2D IC50 against PC3 cells
Protocol: 2D activity detection: 1200 PC3 cells were seeded in a 96-well plate. After overnight adherence culture, the compound serially diluted was added. 72 h after addition, Cell Titer-Lumi (Beyotime C0068XL) was added to measure the ATP content in the cells. The growth of the cells was evaluated, and IC50 of the compounds against cell growth was calculated.

[3] = test system: Mouse colon cancer MC38 cells; test: In vivo efficacy experiment in MC38 model; set-up: species or system BALB/c mice; conditions: single drug 50 mg/kg, PO, QD (21 days)
Protocol: The BALB/c mice were subcutaneously injected with 1×10^6 MC38 cells on the right side to form tumors. […] The administration was then started. Tumor volumes were measured with a caliper on day 3, day 7, day 10, day 14, day 17 and day 21 after the administration.

[4] = test system: Human pancreatic cancer Mia PaCa-2 cells; test: In vivo efficacy test in MiaPaCa-2 model; conditions: 25 mg/kg, PO, QD (21 days)
Protocol: After being subcultured, the cells were collected when they reached the desired amount. 1×10^7 Mia PaCa-2 cells were injected into the left dorsal side of each nude mouse, and the animals were randomly grouped for administration after tumors grew to 100-200 mm^3. The mice in the solvent control group were intragastrically administered 0.5% MC-Tween-80 twice a day; the mice in the compound groups were intragastrically administered 0.5% MC-Tween-80 suspension once a day. On Tuesday and Thursday each week, tumor volumes and body weight of the mice were measured, and the nude mice were sacrificed on day 21 after the administration.
(§1) The toxicity of the compounds was evaluated according to the body weight of the mice.

[5] = test system: Human prostatic cancer PC3 cells; test: In vivo efficacy test in PC-3 model; set-up: species or system BALB/c nude mice; conditions: 25 mg/kg, PO, QD (21 days)
Protocol: Female BALB/c nude mice (aged 6 weeks, 18-22 g) were provided by Vital River Laboratory Animal Technology Co., Ltd. (China) and used one week after quarantine and acclimation. All animals were kept in a room at 23±2° C. with a relative humidity of 50±5%, artificial lighting was provided from 08:00 to 20:00 every day, and the air was exchanged 13-18 times per hour.
After being subcultured, the cells were collected when they reached the desired amount. 1×10^7 PC3 cells were injected into the left dorsal side of each nude mouse, and the animals were randomly grouped for administration after tumors grew to 100-200 mm^3. The mice in the solvent control group were intragastrically administered 0.5% MC-Tween-80 twice a day; the mice in the compound groups were intragastrically administered 0.5% MC-Tween-80 suspension once a day. On Tuesday and Thursday each week, tumor volumes and body weight of the mice were measured, and the nude mice were sacrificed on day 21 after the administration.
as §1

[6] = In vivo pharmacokinetic experiment in mice; set-up: species or system CD-1 female mice; conditions: CD-1 mice
Protocol: On the day of the experiment, animals in the intravenous group were administered the corresponding compound by single injection via the tail vein at an administration volume of 10 mL/kg, and animals in the oral group were administered the corresponding compound by single intragastric injection at an administration volume of 10 mL/kg. The animals were weighed before administration, and the administration volume was calculated according to the body weight. […] About 200 μL of whole blood was collected through the orbital venous plexus at each time point and used to prepare plasma for concentration determination by high-performance liquid chromatography-tandem mass spectrometry (LC-MS/MS). The plasma concentrations were processed using a non-compartmental model of Winnolin pharmacokinetic software, and the pharmacokinetic parameters were calculated using a linear-log trapezoidal method.

PC3 cells [7] = test: Inhibition of PC3 cell adherence; assay type: cell-based; conditions: Homo sapiens, PC-3; PC3, 4 h treatment; read-out: Inhibitory activity against PC-3 cell adherence IC50
Protocol: PC3 cells were added at 8000 cells/well. 4 h after the cells were treated with the compound, the number of adherent cells was counted. The inhibition percentages and IC50 of the compounds were calculated compared to the DMSO group.

FAK recombinant protein = FAK recombinant protein (Homo sapiens, UniProt Q05397); test: Inhibitory activity against FAK enzyme; assay type: biochemical; conditions: TK substrate, ATP
Chain of FAK recombinant protein (Q05397 whole entry, species assumed): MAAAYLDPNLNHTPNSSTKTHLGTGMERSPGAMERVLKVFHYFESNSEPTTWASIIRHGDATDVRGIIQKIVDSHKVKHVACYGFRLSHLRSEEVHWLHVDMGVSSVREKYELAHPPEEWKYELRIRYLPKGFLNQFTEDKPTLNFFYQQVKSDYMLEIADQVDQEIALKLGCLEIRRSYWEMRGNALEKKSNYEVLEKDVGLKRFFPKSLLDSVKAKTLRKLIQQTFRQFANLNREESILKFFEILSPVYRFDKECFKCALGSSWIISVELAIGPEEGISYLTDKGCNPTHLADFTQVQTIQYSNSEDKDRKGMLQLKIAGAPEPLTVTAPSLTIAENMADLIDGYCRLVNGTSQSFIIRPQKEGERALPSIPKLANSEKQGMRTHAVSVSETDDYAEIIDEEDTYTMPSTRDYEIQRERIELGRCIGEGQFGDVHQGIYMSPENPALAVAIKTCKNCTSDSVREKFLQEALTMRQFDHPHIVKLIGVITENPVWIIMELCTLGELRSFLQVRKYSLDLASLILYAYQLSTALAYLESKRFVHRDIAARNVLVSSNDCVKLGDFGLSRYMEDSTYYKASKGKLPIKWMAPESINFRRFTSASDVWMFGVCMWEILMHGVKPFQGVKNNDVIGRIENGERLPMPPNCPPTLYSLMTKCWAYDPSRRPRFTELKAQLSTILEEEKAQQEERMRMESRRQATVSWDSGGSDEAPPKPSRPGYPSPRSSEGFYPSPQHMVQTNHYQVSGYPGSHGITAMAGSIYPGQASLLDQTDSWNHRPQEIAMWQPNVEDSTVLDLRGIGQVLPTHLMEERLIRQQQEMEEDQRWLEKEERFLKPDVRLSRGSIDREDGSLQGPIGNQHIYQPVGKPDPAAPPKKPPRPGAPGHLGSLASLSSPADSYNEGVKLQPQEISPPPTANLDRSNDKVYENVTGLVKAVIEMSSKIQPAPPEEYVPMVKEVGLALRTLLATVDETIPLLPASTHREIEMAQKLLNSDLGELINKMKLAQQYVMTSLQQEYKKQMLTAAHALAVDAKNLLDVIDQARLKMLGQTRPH
Summary of the method: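 Compound preincubated with FAK recombinant protein 10 min at room temperature, then biotin-labeled TK substrate and ATP added and incubated 1 h at room temperature.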

[8] = female, mouse, plasma, injection (IV) 1 mg/kg (footnote)
[9] = female, mouse, plasma, oral administration 10 mg/kg

SMILES	IC50 (PC3 cells [1]; numeric (mean where marked *))	IC50 (PC3 cells [7])	IC50 (FAK recombinant protein)	IC50 (PC3 cells [1]; class symbol)	IC50 (PC3 cells [2]; class symbol)	other results
COc1cc(N2CC3(CCN(C)CC3)C2)ccc1Nc1ncc(C(F)(F)F)c(Oc2cccc3c2C(=O)N(C)C3)n1 [Compound 90, 7-((2-((2-methoxy-4-(7-methyl-2,7-diazaspiro[3.5]non-2-yl)phenyl)amino)-5-(trifluoromethyl)pyrimidin-4-yl)oxy)-2-methylisoindolin-1-one]	0.8 nM	1.86 nM	< 10 nM	–	–	IC50 (PC3 cells [2]; numeric): > 10000 nM; Change in body weight [3]: +13.54%; TGI (%) [3]: 59.02%; Change in body weight [4]: +3.67%; TGI (%) [4]: 83.72%; Change in body weight [5]: −0.5%; TGI (%) [5]: 81.65%; oral bioavailability and oral absorption properties (in words) ([6]; oral 10 mg/kg): good oral bioavailability and good oral absorption properties; AUC(0-t) [6, 8]: 812 ng·h/mL; clearance [6, 8]: 20.5 mL/min/kg; half-life [6, 8]: 3.08 h; Vd ([6]; female, mouse, plasma, injection (IV) 1 mg/kg (footnote), read-out: Vdss): 5.34 L/kg; AUC(0-t) [6, 9]: 7460 ng·h/mL; Cmax [6, 9]: 635 ng/mL; Tmax [6, 9]: 4 h; half-life [6, 9]: 2.82 h; bioavailability ([6]; female, mouse, plasma, oral administration 10 mg/kg vs injection): 92%
COc1cc(C(=O)N2CC3(CCN(C)CC3)C2)c(F)cc1Nc1ncc(C(F)(F)F)c(Oc2cccc3c2C(=O)N(C)C3)n1 [Compound 34]	41.3 nM	86 nM	< 10 nM	–	> 2000 nM	–
COc1cc(N2CCC3(CC2)CN(C)C3)ccc1Nc1ncc(C(F)(F)F)c(Oc2cccc3c2C(=O)N(C)C3)n1 [Compound 92]	0.83 nM	3.05 nM	< 10 nM	–	–	IC50 (PC3 cells [2]; numeric): > 10000 nM
COc1cc(N2CC3(CCN(C)CC3)C2)ccc1Nc1ncc(C#N)c(Oc2cccc3c2C(=O)N(C)C3)n1 [Compound 113]	1.58 nM	3.56 nM	< 10 nM	–	> 2000 nM	–

More lines, main results first:

IC50 (PC3 cells [1]; numeric (mean where marked *))	IC50 (PC3 cells [7])	IC50 (FAK recombinant protein)	IC50 (PC3 cells [1]; class symbol)	IC50 (PC3 cells [2]; class symbol)	SMILES	other results
–	2.88 nM	< 10 nM	< 5 nM	> 2000 nM	COc1cc(N2CC3(CCN(C)CC3)CC2=O)c(F)cc1Nc1ncc(C(F)(F)F)c(Oc2cccc3c2C(=O)N(C)C3)n1 [Compound 62]	–
–	7.01 nM	< 10 nM	> 50 nM	> 2000 nM	COc1cc(N2CC3(CCN(C)C3)OCC2=O)c(F)cc1Nc1ncc(C(F)(F)F)c(Oc2cccc3c2C(=O)N(C)C3)n1 (stereo not shown) [Compound 66]	–
–	3.01 nM	< 10 nM	< 5 nM	> 2000 nM	COc1cc(N2CC3(CCNCC3)C2)ccc1Nc1ncc(C(F)(F)F)c(Oc2cccc3c2C(=O)N(C)C3)n1 [Compound 102]	–
–	2.63 nM	< 10 nM	< 5 nM	> 2000 nM	COc1cc(N2CC3(CCN(C)CC3)C2)ccc1Nc1ncc([N+](=O)[O-])c(Oc2cccc3c2C(=O)N(C)C3)n1 [Compound 114]	–
1.78 nM	1.62 nM	< 10 nM	–	> 2000 nM	COc1cc(N2CC3(CCN(C)CC3)C2)ccc1Nc1ncc(Cl)c(Oc2cccc3c2C(=O)N(C)C3)n1 [Compound 111]	Change in body weight [3]: +21.07%; TGI (%) [3]: 47.67%; Change in body weight [4]: +6.08%; TGI (%) [4]: 82.32%; Change in body weight [5]: −1.4%; TGI (%) [5]: 87.4%
